Test results: patent publication US12259384B2, “Membrane and droplet-interface bilayer systems and methods” (University of Massachusetts, priority 2015, dated 2025)

Molecular target: α-hemolysin (Staphylococcus aureus, UniProt P09616)
Type: biochemical

Sequence of α-hemolysin (P09616 27-319 limits assumed): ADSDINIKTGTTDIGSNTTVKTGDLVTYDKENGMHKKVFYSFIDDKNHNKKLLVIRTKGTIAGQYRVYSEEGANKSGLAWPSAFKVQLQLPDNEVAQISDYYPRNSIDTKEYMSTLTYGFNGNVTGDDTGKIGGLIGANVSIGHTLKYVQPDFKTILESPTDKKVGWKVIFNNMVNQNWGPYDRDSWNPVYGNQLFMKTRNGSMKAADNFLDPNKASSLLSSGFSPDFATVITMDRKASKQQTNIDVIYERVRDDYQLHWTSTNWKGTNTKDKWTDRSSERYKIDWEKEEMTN

OC[C@H]1O[C@@H]2O[C@H]3[C@H](O)[C@@H](O)[C@@H](O[C@H]4[C@H](O)[C@@H](O)[C@@H](O[C@H]5[C@H](O)[C@@H](O)[C@@H](O[C@H]6[C@H](O)[C@@H](O)[C@@H](O[C@H]7[C@H](O)[C@@H](O)[C@@H](O[C@H]8[C@H](O)[C@@H](O)[C@@H](O[C@H]9[C@H](O)[C@@H](O)[C@@H](O[C@H]1[C@H](O)[C@H]2O)O[C@@H]9CO)O[C@@H]8CO)O[C@@H]7CO)O[C@@H]6CO)O[C@@H]5CO)O[C@@H]4CO)O[C@@H]3CO [cyclodextrin, γ-Cyclodextrin]
magnitude and lifetime of the reversible blockades of the α-hemolysin pore: consistent with previous reports | reversible blockages of the α-hemolysin pores: reversible blockages of the pores by cyclodextrin are observed
